From US6787530B1, “Use of pregnane-diones as analgesic agents” (priority 1996, dated 2004)
Entries after “also recorded” stand apart in the source; their conditions may differ.

How the values were obtained:
[1] = tested on: mice; assay: PAN LABS toxicity test; assay type: in vivo, mouse
Procedure: The experiments from our laboratory are supported by observations by an independent body, PAN LABS. A sample of alphadolone used in the above experiments in rats in our laboratory was sent to a commercial drug-testing house, called PAN LABS. They gave the drug to a number of preparations to look for toxicity effects as well as pharmacological effect. In one toxicity test performed at PAN LABS, doses of up to 300 mg per kg of alphadolone was given to mice.

[2] = tested on: rats; assay: Loss of righting reflex and loss of coordination in the rotarod test after intraperitoneal dosing
Source text: Groups of 10 rats were examined for the duration of the loss of righting reflex and loss of coordination in the rotarod test and also for antinociceptive effects in the electrical current threshold test measured in the tail. […] Thus we were able to compare the duration of sedation and anaesthesia and quantity of antinociception following intraperitoneal administration of the neurosteroid mixture and also following the components of the mixture at the doses which were given when the combination was used.
We have gone on to test the ability for alphadolone to produce sedation. We have given doses up to […] intraperitoneally of alphadolone.

[3] = tested on: rats; assay: Sedation scoring (righting reflex, locomotion) after intravenous injection; assay type: in vivo, rat
Source text: It is generally accepted in the literature that both alphaxalone and alphadolone are intravenous anaesthetics, i.e. when they are given intravenously, they produce sedation and unconsciousness to a level sufficient for surgery. […] Such data, although alluded to in the literature, is not stated clearly with scientific evidence. Thus, we performed the experiments described in Example 2. Rats were given an intravenous injection of alphadolone. All of the rats became unconscious and surgically anaesthetised within 5 seconds of the intravenous injection. […] Thus, it can be concluded that intravenous injection of alphadolone produces unconsciousness.
Four rats (wt 100 g) were given 0.25 ml injections of alphadolone solution (10 mg/ml; dissolved in 10% Cremophor EL), into the lateral tail vein. A stopwatch was used to time the following scoring of sedation every 15 seconds:
1—righting reflex but no spontaneous locomotion
2—spontaneous locomotion but uncoordinated
3—normal locomotion and exploratory behaviour: full recovery
They all recovered fully within 90 seconds of the drug administration.

[4] = Plasma alphadolone and glucuronide metabolite levels after oral capsule; assay type: in vivo, human
Procedure: The patients who had alphadolone administered orally to them, had blood samples taken at time 0, the time of drug administration, and at ½ hour intervals for 6 hours This blood was sent off to a laboratory at the Royal Melbourne Institute of Technology for analysis of blood alphadolone levels. It can be seen from Example 5 that no measurable alphadolone was found in the blood of these patients who were reporting useful analgesia with decreased morphine requirements. […] These experiments mean that very little or no free alphadolone was present in these patient's blood, but large quantities of alphadolone was present as the glucuronide metabolite. This evidence supports further our claim that the analgesic effects of alphadolone and alphadolone acetate given by oral and intraperitoneal routes involves activity of metabolites in general and the glucuronide in particular.
All patients had 10 ml of blood taken from a vein immediately prior to the capsule administration and also 30 minutes, one hour, 1½ hours, 2 hours, 3 hours, 4 hours and 6 hours after capsule administration. The blood was placed in heparinised tubes, centrifuged and the plasma decanted for later analysis of blood alphadolone levels by the Key Centre for Applied and Nutritional Toxicology, Royal Melbourne Institute of Technology.
No alphadolone was detected in the plasma. The lower limit of detection was 50 ng/ml. […] In 5 of these patients the metabolite was detected in the first sample taken after the alphadolone capsule had been given.

[5] = tested on: spinal cord GABAA receptors
Procedure: A study was performed on five rats. Alphadolone ([…]) was suspended in normal saline. The five rats were randomised to receive on two different occasions on two different days either […]. This was a cross-over study such that on the following occasion if a rat had received vehicle on the first occasion then it received alphadolone on the second occasion and vice versa. This dosing was randomised and the observer making measurements of pain thresholds was blinded to the nature of the drug given to these rats. In each experiment, the electrical current threshold in the neck and the tail were measured every five minutes until three stable readings were obtained. Then either vehicle or alphadolone 750 mg per kg suspended in saline was instilled into the stomach via an oesophageal needle. Five minutes later and every five minutes thereafter, electrical current thresholds for nociception were measured in the skin of the tail and neck At 60 minutes 10 pmol of bicuculline in 5 μl 6% dextrose was injected intrathecally down a Portex catheter that had been implanted previously in the lumbar sub arachnoid space to lie adjacent to the most caudal segments of spinal cord responsible for tail innervation.

[6] = tested on: Wistar rat; assay: Electrical current threshold for pain (ECT) in the tail after intragastric dosing, pilot experiment; assay type: in vivo; settings: 150 mg suspended in 1% Cremophor EL, 99% saline, intragastrically; one rat approx. 200 g
Procedure: We performed a pilot experiment on one drug naive nale Wistar rat that weighed approximately 200 g. We measured the nociceptive (pain) threshold in the tail using electrical current as the noxious stimulus. We measured the electrical current threshold for pain (ECT) in the tail every five minutes until the readings stabilised. We then gave 150 mg alphadolone acetate suspended in 1% Cremophor EL, 99% saline, intragastrically.

[7] = plasma treated with glucuronidase, 250 mg, 5 patients, 500 mg, one patient

CC(=O)OCC(=O)[C@H]1CC[C@H]2[C@@H]3CC[C@H]4C[C@H](O)CC[C@]4(C)[C@H]3C(=O)C[C@]12C [alphadolone, 21-acetoxy-3alpha-hydroxy-5alpha-pregnane-11,20-dione]
grip strength ([1]; 300 mg/kg, mice): mild decrease in grip strength; also recorded: slight decrease in grip strength | anaesthesia ([1]; doses of up to 300 mg per kg given to mice): did not produce anaesthesia | sedative effects ([2]; 0.1 to 100 mg/kg intraperitoneally, rats): No sedative effects were observed | sedation, loss of coordination, abnormal behaviour ([2]; doses up to 300 mg/kg intraperitoneally (b128 prints 300 mg/g), rats): no sedative effects whatsoever; also recorded: no evidence of sedation or loss of coordination | sedation and anaesthesia (loss of righting reflex, loss of coordination in rotarod test) ([2]; ip, Saffan 2 ml/kg, alphaxalone 18 mg/kg, alphadolone 6 mg/kg, groups of 10 rats): no sedation or loss of righting reflex | righting reflex / sedation ([3]; 25 mg/kg intravenous (lateral tail vein), 10% Cremophor EL, four rats): lost the righting reflex and were heavily sedated | time to full recovery after drug administration ([3]; 25 mg/kg intravenous, four rats): ≤ 90 s | time to unconsciousness and surgical anaesthesia after intravenous injection ([3]; intravenous injection, rats): ≤ 5 s | alphadolone in plasma (lower limit of detection) ([4]; oral capsule, samples up to 6 hours, without glucuronidase treatment): < 50 ng/mL | alphadolone metabolite (glucuronide) in plasma [4, 7]: microgram/ml concentrations | alphadolone metabolite in plasma at the 6 hour sampling time point [4, 7]: still present, although decaying | electrical current threshold in the skin of the tail and the neck ([5]; 750 mg per kg intragastric, suspended in saline, five rats, cross-over vs vehicle): sharp rise in the electrical current threshold | sedation (observation of the animals) ([5]; 750 mg per kg intragastric, five rats): no animals seemed to be sedated in any form whatsoever | antinociception (pain relief) ([5]; given intragastrically to rats): powerful antinociception | sedation ([5]; range of doses intragastrically to rats): no sedation, even at very large doses | electrical current threshold for pain (ECT) in the tail [6]: significant rise in tail pain thresholds
